Results: patent US20050112573A1, “Method of detecting toxic substance” (priority 2001, published 2005)

System: yeast genes (level of expressed mRNA)
Experiment: DNA chip analysis of expressed mRNA of yeast genes after 2 h culture with a toxic chemical substance
Assay type: cell-based, Saccharomyces cerevisiae S288C
How it was run: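 Values are treated-to-control fluorescence ratios from a whole-yeast-genome DNA chip (65° C, over 12 h hybridization) using Cy3/Cy5-labelled cDNA from mRNA. Log-phase S288C cells in YPD at 25° C were exposed 2 h to a toxicant at sublethal, growth-inhibiting concentration.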

Na2As [(1)]
The level of expressed mRNA in the presence of chemical substance/ (yeast gene YFL010C, ratio to control without chemical substance, 2 h culture): 1.0 | The level of expressed mRNA in the presence of chemical substance/ (yeast gene YFL024C, ratio to control without chemical substance, 2 h culture): 1.0 | The level of expressed mRNA in the presence of chemical substance/The level of expressed mRNA in the absence of chemical substance (yeast gene YFL028C): 1.2 | The level of expressed mRNA in the presence of chemical substance/ (yeast gene YFL032W, ratio to control without chemical substance, 2 h culture): 0.4 | The level of expressed mRNA in the presence of chemical substance/The level of expressed mRNA in the absence of chemical substance (yeast gene YFL043C): 1.0 | The level of expressed mRNA in the presence of chemical substance/in the absence of chemical substance (yeast gene YGL035C): 0.7 | The level of expressed mRNA in the presence of chemical substance/ (yeast gene YGL037C, ratio to control without chemical substance, 2 h culture): 1.5 | The level of expressed mRNA in the presence of chemical substance/ (yeast gene YGL047W, ratio to control without chemical substance, 2 h culture): 1.0 | The level of expressed mRNA in the presence of chemical substance/ (yeast gene YGL053W, ratio to control without chemical substance, 2 h culture): 1.5 | The level of expressed mRNA in the presence of chemical substance/ (yeast gene YGL121C, ratio to control without chemical substance, 2 h culture): 2.6 | The level of expressed mRNA in the presence of chemical substance/The level of expressed mRNA in the absence of chemical substance (yeast gene YGL158W): 1.1 | The level of expressed mRNA in the presence of chemical substance/ (yeast gene YGL199C, ratio to control without chemical substance, 2 h culture): 1.1 | The level of expressed mRNA in the presence of chemical substance/The level of expressed mRNA in the absence of chemical substance (yeast gene YGL229C): 0.6 | The level of expressed mRNA in the presence of chemical substance/ (yeast gene YGR101W, ratio to control without chemical substance, 2 h culture): 1.0 | The level of expressed mRNA in the presence of chemical substance/ (yeast gene YGR110W, ratio to control without chemical substance, 2 h culture): 1.6 | The level of expressed mRNA in the presence of chemical substance/ (yeast gene YGR130C, ratio to control without chemical substance, 2 h culture): 0.9 | The level of expressed mRNA in the presence of chemical substance/The level of expressed mRNA in the absence of chemical substance (yeast gene YGR136W): 0.9 | The level of expressed mRNA in the presence of chemical substance/ (yeast gene YGR154C, ratio to control without chemical substance, 2 h culture): 1.8 | The level of expressed mRNA in the presence of chemical substance/The level of expressed mRNA in the absence of chemical substance (yeast gene YGR189C): 1.1 | The level of expressed mRNA in the presence of chemical substance/The level of expressed mRNA in the absence of chemical substance (yeast gene YGR213C): 5.4 | The level of expressed mRNA in the presence of chemical substance/ (yeast gene YGR221C, ratio to control without chemical substance, 2 h culture): 0.9 | The level of expressed mRNA in the presence of chemical substance/The level of expressed mRNA in the absence of chemical substance (yeast gene YGR257C): 0.7 | The level of expressed mRNA in the presence of chemical substance/in the absence of chemical substance (yeast gene YGR287C): 1.3 | The level of expressed mRNA in the presence of chemical substance/The level of expressed mRNA in the absence of chemical substance (yeast gene YHR004C): 0.9 | The level of expressed mRNA in the presence of chemical substance/The level of expressed mRNA in the absence of chemical substance (yeast gene YHR071W): 1.5 | The level of expressed mRNA in the presence of chemical substance/ (yeast gene YHR138C, ratio to control without chemical substance, 2 h culture): 2.8 | The level of expressed mRNA in the presence of chemical substance/The level of expressed mRNA in the absence of chemical substance (yeast gene YHR139C): 3.0 | The level of expressed mRNA in the presence of chemical substance/The level of expressed mRNA in the absence of chemical substance (yeast gene YHR142W): 1.5 | The level of expressed mRNA in the presence of chemical substance/ (yeast gene YHR199C, ratio to control without chemical substance, 2 h culture): 1.9 | The level of expressed mRNA in the presence of chemical substance/ (yeast gene YIL023C, ratio to control without chemical): 1.1 | The level of expressed mRNA in the presence of chemical substance/ (yeast gene YIL041W, ratio to control without chemical substance, 2 h culture): 1.0 | The level of expressed mRNA in the presence of chemical substance/ (yeast gene YIL087C, ratio to control without chemical substance, 2 h culture): 1.3 | The level of expressed mRNA in the presence of chemical substance/The level of expressed mRNA in the absence of chemical substance (yeast gene YIL123W): 1.0 | The level of expressed mRNA in the presence of chemical substance/The level of expressed mRNA in the absence of chemical substance (yeast gene YIL140W): 0.7 | The level of expressed mRNA in the presence of chemical substance/ (yeast gene YJL057C, ratio to control without chemical substance, 2 h culture): 1.5 | The level of expressed mRNA in the presence of chemical substance/ (yeast gene YJL066C, ratio to control without chemical substance, 2 h culture): 0.9 | The level of expressed mRNA in the presence of chemical substance/in the absence of chemical substance (yeast gene YJL070C): 1.3 | The level of expressed mRNA in the presence of chemical substance/The level of expressed mRNA in the absence of chemical substance (yeast gene YJL073W): 0.8 | The level of expressed mRNA in the presence of chemical substance/ (yeast gene YJL082W, ratio to control without chemical substance, 2 h culture): 1.4 | The level of expressed mRNA in the presence of chemical substance/The level of expressed mRNA in the absence of chemical substance (yeast gene YJL089W): 1.1 | The level of expressed mRNA in the presence of chemical substance/The level of expressed mRNA in the absence of chemical substance (yeast gene YJL116C): 0.9 | The level of expressed mRNA in the presence of chemical substance/ (yeast gene YJL151C, ratio to control without chemical substance, 2 h culture): 1.0 | The level of expressed mRNA in the presence of chemical substance/ (yeast gene YJL152W, ratio to control without chemical substance, 2 h culture): 0.9 | The level of expressed mRNA in the presence of chemical substance/ (yeast gene YJL161W, ratio to control without chemical substance, 2 h culture): 1.7 | The level of expressed mRNA in the presence of chemical substance/in the absence of chemical substance (yeast gene YJL167W): 0.9 | The level of expressed mRNA in the presence of chemical substance/ (yeast gene YJL171C, ratio to control without chemical substance, 2 h culture): 2.3 | The level of expressed mRNA in the presence of chemical substance/in the absence of chemical substance (yeast gene YJL216C): 0.8 | The level of expressed mRNA in the presence of chemical substance/The level of expressed mRNA in the absence of chemical substance (yeast gene YJR004C): 0.2 | The level of expressed mRNA in the presence of chemical substance/ (yeast gene YJR008W, ratio to control without chemical substance, 2 h culture): 1.6 | The level of expressed mRNA in the presence of chemical substance/ (yeast gene YJR054W, ratio to control without chemical): 0.8 | The level of expressed mRNA in the presence of chemical substance/The level of expressed mRNA in the absence of chemical substance (yeast gene YJR086W): 1.2 | The level of expressed mRNA in the presence of chemical substance/The level of expressed mRNA in the absence of chemical substance (yeast gene YKL008C): 1.2 | The level of expressed mRNA in the presence of chemical substance/The level of expressed mRNA in the absence of chemical substance (yeast gene YKL013C): 1.4 | The level of expressed mRNA in the presence of chemical substance/The level of expressed mRNA in the absence of chemical substance (yeast gene YKL039W): 0.8 | The level of expressed mRNA in the presence of chemical substance/The level of expressed mRNA in the absence of chemical substance (yeast gene YKL041W): 1.2 | The level of expressed mRNA in the presence of chemical substance/ (yeast gene YKL071W, ratio to control without chemical substance, 2 h culture): 8.3
